According to PubChem BioAssay (NCI):
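Following 48 hours of exposure in 96-well plates, responses at five concentrations were used to interpolate endpoints linearly. Here, GI50 denotes the concentration required for 50% inhibition of growth. TGI: concentration producing complete growth inhibition.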

Experiments:
Test in all cases: DTP human tumour cell line panel, 48 h
HCC-2998 colon = tested on: HCC-2998 colon
MDA-MB-231 breast = tested on: MDA-MB-231 breast
COLO 205 colon = tested on: COLO 205 colon
CCRF-CEM leukemia = tested on: CCRF-CEM leukemia
TK-10 renal = tested on: TK-10 renal
NCI-H226 lung = tested on: NCI-H226 lung
HOP-62 NSCLC = tested on: HOP-62 NSCLC
SF-268 CNS = tested on: SF-268 CNS
A549 NSCLC = tested on: A549 NSCLC
U251 CNS = tested on: U251 CNS
SNB-19 CNS = tested on: SNB-19 CNS
EKVX NSCLC = tested on: EKVX NSCLC
HCT-116 colon = tested on: HCT-116 colon
UACC-257 melanoma = tested on: UACC-257 melanoma
ACHN renal = tested on: ACHN renal
NCI-H23 lung = tested on: NCI-H23 lung
M14 melanoma = tested on: M14 melanoma
786-0 renal = tested on: 786-0 renal
SF-539 CNS = tested on: SF-539 CNS
SW-620 colon = tested on: SW-620 colon
HT29 colon = tested on: HT29 colon
SR leukemia = tested on: SR leukemia
MALME-3M melanoma = tested on: MALME-3M melanoma
OVCAR-3 ovarian = tested on: OVCAR-3 ovarian
NCI-H522 lung = tested on: NCI-H522 lung
IGROV1 ovarian = tested on: IGROV1 ovarian
RXF 393 renal = tested on: RXF 393 renal
MCF7 breast = tested on: MCF7 breast
UO-31 renal = tested on: UO-31 renal

Question: Which results are given for COc1ccc(-n2cc(-c3ccc(Cl)c(Cl)c3)nc2SCc2cccc(C#N)c2)cc1?
Answer: GI50 (HCC-2998 colon): 79.1 µM; TGI (HCC-2998 colon): > 100 µM; GI50 (MDA-MB-231 breast): 68 µM; TGI (MDA-MB-231 breast): > 100 µM; GI50 (COLO 205 colon): 51.7 µM; TGI (COLO 205 colon): > 100 µM; GI50 (CCRF-CEM leukemia): > 100 µM; TGI (CCRF-CEM leukemia): > 100 µM; GI50 (TK-10 renal): 44.6 µM; TGI (TK-10 renal): > 100 µM; GI50 (NCI-H226 lung): 77 µM; TGI (NCI-H226 lung): > 100 µM; GI50 (HOP-62 NSCLC): 24.7 µM; TGI (HOP-62 NSCLC): > 100 µM; GI50 (SF-268 CNS): 37 µM; TGI (SF-268 CNS): > 100 µM; GI50 (A549 NSCLC): 93.8 µM; TGI (A549 NSCLC): > 100 µM; GI50 (U251 CNS): 26.8 µM; TGI (U251 CNS): > 100 µM; GI50 (SNB-19 CNS): 29.2 µM; TGI (SNB-19 CNS): > 100 µM; GI50 (EKVX NSCLC): 41.9 µM; TGI (EKVX NSCLC): > 100 µM; GI50 (HCT-116 colon): 4.55 µM; TGI (HCT-116 colon): > 100 µM; GI50 (UACC-257 melanoma): 66.9 µM; TGI (UACC-257 melanoma): > 100 µM; GI50 (ACHN renal): 30.4 µM; TGI (ACHN renal): > 100 µM; GI50 (NCI-H23 lung): 39.8 µM; TGI (NCI-H23 lung): > 100 µM; GI50 (M14 melanoma): 48.2 µM; TGI (M14 melanoma): > 100 µM; GI50 (786-0 renal): 11.8 µM; TGI (786-0 renal): 40.2 µM; GI50 (SF-539 CNS): 16.1 µM; TGI (SF-539 CNS): 41.9 µM; GI50 (SW-620 colon): 60 µM; TGI (SW-620 colon): > 100 µM; GI50 (HT29 colon): 4.7 µM; TGI (HT29 colon): > 100 µM; GI50 (SR leukemia): > 100 µM; TGI (SR leukemia): > 100 µM; GI50 (MALME-3M melanoma): 16.4 µM; TGI (MALME-3M melanoma): > 100 µM; GI50 (OVCAR-3 ovarian): 17 µM; TGI (OVCAR-3 ovarian): > 100 µM; GI50 (NCI-H522 lung): 13.6 µM; TGI (NCI-H522 lung): > 100 µM; GI50 (IGROV1 ovarian): 4.77 µM; TGI (IGROV1 ovarian): 28.3 µM; GI50 (RXF 393 renal): 13.6 µM; TGI (RXF 393 renal): 41 µM; GI50 (MCF7 breast): 34.5 µM; TGI (MCF7 breast): > 100 µM; GI50 (UO-31 renal): 35.2 µM; TGI (UO-31 renal): > 100 µM
